Where “and” joins values, the source holds several entries; their conditions need not be identical. Equal entries are not always repeated. Structures can show the parent of a compound that is named as a salt.
What was measured:
AMO-1 = assay: Antiproliferation assay (Assay 7), AMO-1; assay type: cell-based; conditions: CellTiter-Glo, 72 hours, several values per example, read-out: Antiproli AMO-1 [M] IC50
How it was run: (§1)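 Plate cells in treatment and day 0 reference plates; read day 0 plate with CellTiter-Glo after 10 min; incubate treated plates 72 h at 37° C; read them identically.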

SUDHL5 = assay: Induction of caspase-3/7 activity (Assay 4), SUDHL5; assay type: cell-based; conditions: caspase-3/7 induction, 3 hours, median
How it was run: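 DLBCL cells were exposed to compounds for 3 hours at 37 °C, then caspase-3/7 activation was read with Caspase-Glo 3/7 reagent. After subtracting medium-only background, EC50s were derived with fixed C0=1 and the reference compound's maximal induction as plateau.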

BCL-XL = BCL-XL (Homo sapiens (Human), UniProt Q07817); assay: Protein-protein interaction assay BCL-XL/Bad BH3 peptide (BCL-XL assay, TR-FRET); assay type: binding; conditions: His-BCL-XL / Bad BH3 peptide, median
Sequence of BCL-XL (Q07817 other isoform, or with tags, fused parts or gaps): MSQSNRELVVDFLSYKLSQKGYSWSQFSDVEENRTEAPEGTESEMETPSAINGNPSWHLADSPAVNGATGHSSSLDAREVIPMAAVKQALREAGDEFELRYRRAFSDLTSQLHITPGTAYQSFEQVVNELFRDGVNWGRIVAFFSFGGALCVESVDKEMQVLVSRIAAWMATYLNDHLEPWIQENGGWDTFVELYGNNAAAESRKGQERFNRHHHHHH
How it was run: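 His-tagged human BCL-XL (aa 1-212, 1 nM final) was preincubated 10 min at 22 °C with compound (11 concentrations, 0.1 nM–20 μM), then biotinylated Bad BH3 peptide (1 nM) and TR-FRET reagents were added. Incubation: 1 h at 22 °C, then overnight at 4 °C, pH 7 Tris buffer. IC50 from 4-parameter fit of 665/620 ratio.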

HMC-1-8 = assay: Antiproliferation assay (Assay 7), HMC-1-8; assay type: cell-based; conditions: CellTiter-Glo, 72 hours, several values per example, read-out: Antiproli HMC-1-8 [M] IC50
How it was run: as §1

EC50 (SUDHL5) | IC50 (BCL-XL) | SMILES | IC50 (AMO-1) | IC50 (HMC-1-8)
0.085 µM | > 20 µM | CCc1c2c(nn1C)CN(C)S(=O)(=O)CCCn1c(C(=O)O)c(CCCOc3cccc4cc(F)ccc34)c3ccc(Cl)c-2c31 (single isomer, unassigned; enantiomer 1) [Example 36, (+)-4-chloro-3-ethyl-7-{3-[(6-fluoronaphthalen-1-yl)oxy]propyl}-2,14-dimethyl-13,13-dioxo-10,11,12,13,14,15-hexahydro-2H-13lambda^6-pyrazolo[3′,4′:4,5][1,2,8]thiadiazacycloundecino-[6,7,8-hi]indole-8-carboxylic acid (Enantiomer 1)] | 4.5e-07 M and 5.3e-07 M | 1.7e-06 M and 1.9e-06 M
20 µM | > 20 µM | Cc1c2c(nn1C)CN(C)S(=O)(=O)CCCn1c(C(=O)O)c(CCCOc3cccc4cc(F)ccc34)c3ccc(F)c-2c31 (single isomer, unassigned; enantiomer 1) [Example 38, (−)-4-fluoro-7-{3-[(6-fluoronaphthalen-1-yl)oxy]propyl}-2,3,14-trimethyl-13,13-dioxo-10,11,12,13,14,15-hexahydro-2H-13lambda^6-pyrazolo[3′,4′:4,5][1,2,8]thiadiazacycloundecino-[6,7,8-hi]indole-8-carboxylic acid (Enantiomer 1)] | 2.9e-05 M | 2.7e-05 M
27 µM | 18 µM | Cc1c2c(nn1C)C(CCN1CCOCC1)N(C)S(=O)(=O)CCCn1c(C(=O)O)c(CCCOc3cccc4ccccc34)c3cccc-2c31 (single isomer, unassigned; enantiomer 1) [Example 45, 2,3,14-trimethyl-15-[2-(morpholin-4-yl)ethyl]-7-{3-[(naphthalen-1-yl)oxy]propyl}-13,13-dioxo-10,11,12,13,14,15-hexahydro-2H-13lambda^6-pyrazolo[3′,4′:4,5][1,2,8]thiadiazacycloundecino[6,7,8-hi]indole-8-carboxylic acid N-ethylethanamine Salt (Enantiomer 1)] | 1.5e-05 M | > 3.3e-05 M
3.5 µM | > 20 µM | Cc1c2c(nn1C)C(CCN1CCOCC1)N(C)S(=O)(=O)CCCn1c(C(=O)O)c(CCCOc3cccc4cc(F)ccc34)c3ccc(Cl)c-2c31 (single isomer, unassigned; enantiomer 1) [Example 66, 4-chloro-7-{3-[(6-fluoronaphthalen-1-yl)oxy]propyl}-2,3,14-trimethyl-15-[2-(morpholin-4-yl)ethyl]-13,13-dioxo-10,11,12,13,14,15-hexahydro-2H-13lambda^6-pyrazolo[3′,4′:4,5][1,2,8]thiadiazacycloundecino[6,7,8-hi]indole-8-carboxylic acid (Enantiomer 1)] | 3.7e-06 M | > 3.3e-05 M
5 µM | 18 µM | CCc1c2c(nn1C)CN(C)S(=O)(=O)CCCn1c(C(=O)O)c(CCCOc3cccc4cc(F)ccc34)c3ccc(Cl)c-2c31 (single isomer, unassigned; enantiomer 2) [Example 37, (−)-4-chloro-3-ethyl-7-{3-[(6-fluoronaphthalen-1-yl)oxy]propyl}-2,14-dimethyl-13,13-dioxo-10,11,12,13,14,15-hexahydro-2H-13lambda^6-pyrazolo[3′,4′:4,5][1,2,8]thiadiazacycloundecino-[6,7,8-hi]indole-8-carboxylic acid (Enantiomer 2)] | 2.8e-05 M | 1.9e-05 M
0.35 µM | > 20 µM | Cc1c2c(nn1C)CN(C)S(=O)(=O)CCCn1c(C(=O)O)c(CCCOc3cccc4cc(F)ccc34)c3ccc(F)c-2c31 (single isomer, unassigned; enantiomer 2) [Example 39, (+)-4-fluoro-7-{3-[(6-fluoronaphthalen-1-yl)oxy]propyl}-2,3,14-trimethyl-13,13-dioxo-10,11,12,13,14,15-hexahydro-2H-13lambda^6-pyrazolo[3′,4′:4,5][1,2,8]thiadiazacycloundecino-[6,7,8-hi]indole-8-carboxylic acid (Enantiomer 2)] | 1.4e-06 M | 3.3e-06 M and 5.1e-06 M
0.39 µM | > 20 µM | Cc1c2c(nn1C)C(CCN1CCOCC1)N(C)S(=O)(=O)CCCn1c(C(=O)O)c(CCCOc3cccc4ccccc34)c3cccc-2c31 (single isomer, unassigned; enantiomer 2) [Example 46, 2,3,14-trimethyl-15-[2-(morpholin-4-yl)ethyl]-7-{3-[(naphthalen-1-yl)oxy]propyl}-13,13-dioxo-10,11,12,13,14,15-hexahydro-2H-13lambda^6-pyrazolo[3′,4′:4,5][1,2,8]thiadiazacycloundecino[6,7,8-hi]indole-8-carboxylic acid N-ethylethanamine Salt (Enantiomer 2)] | 5.3e-07 M and 5e-07 M | 9.4e-06 M and 1.2e-05 M
27 µM | 16 µM | Cc1c2c(nn1C)CNS(=O)(=O)CCCn1c(C(=O)O)c(CCCOc3cccc4cc(F)ccc34)c3ccc(Cl)c-2c31 (single isomer, unassigned; enantiomer 2) [Example 52, 4-chloro-7-{3-[(6-fluoronaphthalen-1-yl)oxy]propyl}-2,3-dimethyl-13,13-dioxo-10,11,12,13,14,15-hexahydro-2H-13lambda^6-pyrazolo[3′,4′:4,5][1,2,8]thiadiazacycloundecino[6,7,8-hi]indole-8-carboxylic acid (Enantiomer 2)] | 1.1e-05 M | > 3.3e-05 M
4.1 µM | 18 µM | CCc1c2c(nn1C)C(CCC1CCOCC1)N(C)S(=O)(=O)CCCn1c(C(=O)O)c(CCCOc3cccc4cc(F)ccc34)c3ccc(Cl)c-2c31 (single isomer, unassigned; enantiomer 2) [Example 62, (−)-4-chloro-3-ethyl-7-{3-[(6-fluoronaphthalen-1-yl)oxy]propyl}-2,14-dimethyl-15-[2-(oxan-4-yl)ethyl]-13,13-dioxo-10,11,12,13,14,15-hexahydro-2H-13lambda^6-pyrazolo[3′,4′:4,5][1,2,8]thiadiazacycloundecino[6,7,8-hi]indole-8-carboxylic acid (Enantiomer 2)] | 3.8e-06 M | 2.1e-05 M
1.2 µM | > 20 µM | CCc1c2c(nn1C)C(CCC1CCOCC1)N(C)S(=O)(=O)CCCn1c(C(=O)O)c(CCCOc3cccc4cc(F)ccc34)c3ccc(Cl)c-2c31 (single isomer, unassigned; enantiomer 4) [Example 64, (−)-4-chloro-3-ethyl-7-{3-[(6-fluoronaphthalen-1-yl)oxy]propyl}-2,14-dimethyl-15-[2-(oxan-4-yl)ethyl]-13,13-dioxo-10,11,12,13,14,15-hexahydro-2H-13lambda^6-pyrazolo[3′,4′:4,5][1,2,8]thiadiazacycloundecino[6,7,8-hi]indole-8-carboxylic acid (Enantiomer 4)] | 1e-06 M | 1.1e-05 M

SMILES | EC50 (SUDHL5) | IC50 (BCL-XL) | IC50 (AMO-1) | IC50 (HMC-1-8)
Cc1c2c(nn1C)CN(C1CC1)S(=O)(=O)CCCn1c(C(=O)O)c(CCCOc3cccc4cc(F)ccc34)c3ccc(Cl)c-2c31 (single isomer, unassigned; enantiomer 1) [Example 42, (−)-4-chloro-14-cyclopropyl-7-{3-[(6-fluoro-1-naphthyl)oxy]propyl}-2,3-dimethyl-11,12,14,15-tetrahydro-2H,10H-pyrazolo[3′,4′:4,5][1,2,8]thiadiazacycloundecino[6,7,8-hi]indole-8-carboxylic acid 13,13-dioxide N-diethylamine salt (Enantiomer 1)] | 0.19 µM | 18 µM | 2.6e-07 M and 4.7e-07 M | 5.9e-06 M and 3.8e-06 M
Cc1c2c(nn1C)CN(C1CC1)S(=O)(=O)CCCn1c(C(=O)O)c(CCCOc3cccc4cc(F)ccc34)c3ccc(Cl)c-2c31 (single isomer, unassigned; enantiomer 2) [Example 43, (+)-4-chloro-14-cyclopropyl-7-{3-[(6-fluoro-1-naphthyl)oxy]propyl}-2,3-dimethyl-11,12,14,15-tetrahydro-2H,10H-pyrazolo[3′,4′:4,5][1,2,8]thiadiazacycloundecino[6,7,8-hi]indole-8-carboxylic acid 13,13-dioxide N-diethylamine salt (Enantiomer 2)] | 6.1 µM | > 20 µM | 1.1e-05 M | > 3.3e-05 M
Cc1c2c(nn1C)CN(C1CC1)S(=O)(=O)CCCn1c(C(=O)O)c(CCCOc3cccc4ccccc34)c3ccc(Cl)c-2c31 [Example 40, (rac)-4-chloro-14-cyclopropyl-2,3-dimethyl-7-[3-(1-naphthyloxy)propyl]-11,12,14,15-tetrahydro-2H,10H-pyrazolo[3′,4′:4,5][1,2,8]thiadiazacycloundecino[6,7,8-hi]indole-8-carboxylic acid 13,13-dioxide] | 1.9 µM | 19 µM | 4.9e-06 M | 7.2e-06 M

Reference: patent publication US11401278B2, “Macrocyclic indole derivatives” (The Broad Institute, Inc., priority 2017, dated 2022)
